Experimental data: ChEMBL document CHEMBL1201862, “PubChem BioAssay data set” (2004)
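A five-concentration, 48-hour dose response in 96-well plates underlies each endpoint, interpolated linearly between surrounding concentrations. GI50: concentration for 50% inhibition of growth.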 Activity calls are given as the source filed them. Cut-off read from the data, not from the text of the source: active = GI50 up to about 1.1 µM and inactive = higher.

What was measured:
Assay in all cases: DTP human tumour cell line panel, 48 h
NCI-H23 = system: NCI-H23
K562 = system: K562
CAKI-1 = system: CAKI-1
CCRF-CEM = system: CCRF-CEM
OVCAR-5 = system: OVCAR-5
SF-295 = system: SF-295
SK-MEL-5 = system: SK-MEL-5
SN12C = system: SN12C
LOX IMVI = system: LOX IMVI
SK-MEL-2 = system: SK-MEL-2
NCI/ADR-RES = system: NCI/ADR-RES
786-0 = system: 786-0
HT-29 = system: HT-29
COLO 205 = system: COLO 205
MDA-N = system: MDA-N
A549 = system: A549
SNB-75 = system: SNB-75
HCT-15 = system: HCT-15
UACC-62 = system: UACC-62
ACHN = system: ACHN

SMILES	GI50 (NCI-H23)	GI50 (K562)	GI50 (CAKI-1)	GI50 (CCRF-CEM)	GI50 (OVCAR-5)	GI50 (SF-295)	GI50 (SK-MEL-5)	GI50 (SN12C)	GI50 (LOX IMVI)	GI50 (SK-MEL-2)	GI50 (NCI/ADR-RES)	GI50 (786-0)	GI50 (HT-29)	GI50 (COLO 205)	GI50 (MDA-N)	GI50 (A549)	GI50 (SNB-75)	GI50 (HCT-15)	GI50 (UACC-62)	GI50 (ACHN)
O=S(=O)(O)CCCc1cccc2ccccc12	> 100 µM (inactive)	> 100 µM (inactive)	> 100 µM (inactive)	> 100 µM (inactive)	> 100 µM (inactive)	> 100 µM (inactive)	> 100 µM (inactive)	> 100 µM (inactive)	> 100 µM (inactive)	> 100 µM (inactive)	> 100 µM (inactive)	> 100 µM (inactive)	> 100 µM (inactive)	> 100 µM (inactive)	> 100 µM (inactive)	> 100 µM (inactive)	> 100 µM (inactive)	> 100 µM	> 100 µM (inactive)	> 100 µM (inactive)
COC(=O)C([C@H]1CC[C@H](OCc2ccccc2)[C@@]1(O)COCc1ccccc1)C(C)(O)CCc1ccccc1 (stereo not given in full)	15.4 µM (inactive)	8.15 µM (inactive)	57.9 µM (inactive)	6.92 µM (inactive)	13.5 µM (inactive)	8.41 µM (inactive)	14.1 µM (inactive)	5.13 µM (inactive)	8.47 µM (inactive)	12.2 µM (inactive)	4.06 µM (inactive)	12.9 µM (inactive)	4.55 µM (inactive)	12.2 µM (inactive)	13.1 µM (inactive)	6.71 µM (inactive)	2.07 µM (inactive)	13.5 µM	13.2 µM (inactive)	12.5 µM (inactive)
CCOC(=O)C(=O)/C(=C/N1C(=O)CC(=O)NC1=S)C(=O)OCC	> 100 µM (inactive)	> 100 µM (inactive)	> 100 µM (inactive)	> 100 µM (inactive)	> 100 µM (inactive)	> 100 µM (inactive)	> 100 µM (inactive)	> 100 µM (inactive)	> 100 µM (inactive)	> 100 µM (inactive)	> 100 µM (inactive)	> 100 µM (inactive)	> 100 µM (inactive)	> 100 µM (inactive)	> 100 µM (inactive)	> 100 µM (inactive)	10.3 µM (inactive)	> 100 µM	> 100 µM (inactive)	> 100 µM (inactive)
CN1CCN(CCCCN2c3ccccc3Sc3cc(N=[N+]=[N-])ccc32)CC1	6.31 µM (inactive)	1.38 µM (inactive)	2.01 µM (inactive)	2.14 µM (inactive)	12.6 µM (inactive)	2.18 µM (inactive)	1.57 µM (inactive)	2.31 µM (inactive)	1.62 µM (inactive)	2.09 µM (inactive)	2.59 µM (inactive)	1.62 µM (inactive)	1.61 µM (inactive)	1.74 µM (inactive)	3.41 µM (inactive)	1.94 µM (inactive)	3.39 µM (inactive)	2.28 µM	2.13 µM (inactive)	2.15 µM (inactive)
NNC(=O)CSc1nc2ccccc2c(=O)n1N	29.8 µM (inactive)	> 100 µM (inactive)	32.8 µM (inactive)	> 100 µM (inactive)	> 100 µM (inactive)	31.4 µM (inactive)	> 100 µM (inactive)	37.8 µM (inactive)	43.4 µM (inactive)	17.6 µM (inactive)	> 100 µM (inactive)	19 µM (inactive)	22.2 µM (inactive)	> 100 µM (inactive)	> 100 µM (inactive)	> 100 µM (inactive)	13.5 µM (inactive)	> 100 µM	27.6 µM (inactive)	26.4 µM (inactive)
O=c1ccn(CC2(CO)CCCC2)c(=O)[nH]1	> 100 µM (inactive)	> 100 µM (inactive)	> 100 µM (inactive)	> 100 µM (inactive)	> 100 µM (inactive)	> 100 µM (inactive)	> 100 µM (inactive)	> 100 µM (inactive)	> 100 µM (inactive)	> 100 µM (inactive)	> 100 µM (inactive)	> 100 µM (inactive)	> 100 µM (inactive)	> 100 µM (inactive)	> 100 µM (inactive)	> 100 µM (inactive)	> 100 µM (inactive)	> 100 µM	> 100 µM (inactive)	> 100 µM (inactive)
NNC(=O)CC(=O)Nc1cccc(Cl)c1	> 100 µM (inactive)	> 100 µM (inactive)	> 100 µM (inactive)	> 100 µM (inactive)	> 100 µM (inactive)	> 100 µM (inactive)	> 100 µM (inactive)	> 100 µM (inactive)	> 100 µM (inactive)	> 100 µM (inactive)	2.21 µM (inactive)	> 100 µM (inactive)	> 100 µM (inactive)	> 100 µM (inactive)	> 100 µM (inactive)	> 100 µM (inactive)	> 100 µM (inactive)	> 100 µM	> 100 µM (inactive)	> 100 µM (inactive)
